Like-named read-outs stand apart in the source and are kept apart here. *1 amine or outer side, *2 acyl side, *3 side chain or, on linkers, in order; H or OH if unused. Where a SMILES comes first, the peptide text is derived from it. Bridges are numbered along the chain shown (N, C = ends). Where no end group is shown, it is not given here. [ ]: non-standard residue; d: D form. X1 = O=C([C@@H]1CCN=C2C(N[*:1])=Cc3cc(O)c(O)cc3N21)[*:2]; X2 = O=CN(O)CCC[C@H](N[*:1])C(=O)[*:2]; Suc = O=C(CCC(=O)[*:2])[*:1]
What was measured:
[1] = tested on: Her-2-positive (HCC1954) cell line; assay: cell binding and internalisation, HCC1954; type: cell-based; conditions: controls
Method: Radiopharmaceuticals (0.19 MBq/μg) were tested for their internalisation and effects on viability (dye exclusion) and clonogenicity of Her-2-positive (HCC1954) and –negative (MDA-MB-231) cell lines.

[2] = biological target: T1, AT1R (Homo sapiens, UniProt P30556); assay: in vitro AT1R binding studies; type: cell-based; conditions: MDA-MB-231 and CHO AT1R cells vs AT1R-negative CHO cells, 4 °C, one hour, with or without losartan potassium 100 μM
T1 construct: using AT1R-positive MDA-MB-231 breast cancer cells; endogenous in cells
T1 sequence (P30556 whole entry): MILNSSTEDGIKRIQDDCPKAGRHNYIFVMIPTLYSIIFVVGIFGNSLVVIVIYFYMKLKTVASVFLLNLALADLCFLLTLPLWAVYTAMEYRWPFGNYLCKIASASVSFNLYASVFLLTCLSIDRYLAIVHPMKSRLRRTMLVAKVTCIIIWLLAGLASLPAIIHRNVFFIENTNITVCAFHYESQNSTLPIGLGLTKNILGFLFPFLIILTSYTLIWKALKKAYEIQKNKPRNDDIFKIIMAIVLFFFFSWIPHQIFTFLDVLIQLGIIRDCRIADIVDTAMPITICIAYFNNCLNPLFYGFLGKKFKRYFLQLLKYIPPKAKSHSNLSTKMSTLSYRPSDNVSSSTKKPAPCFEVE
Method: Methods: ^19F-AmBF3-losartan was prepared via a copper-catalyzed alkyne-AmBF3 and azide-modified losartan cycloaddition at 45 °C for two hours, followed by semi-preparative HPLC purification. Then, ^19F-AmBF3-losartan (25 nmol, 15.3 μg) was radiolabeled with fluoride-18 (555-925 MBq) via an ^18F–^19F isotope exchange reaction in aqueous phase at 80 °C for 20 minutes and purified by solid phase extraction using a C18 Light Sep-Pak cartridge. In vitro AT1R binding studies were performed at 4 °C for one hour using AT1R-positive MDA-MB-231 breast cancer cells, AT1R-expressing CHO AT1R cells, and AT1R-negative CHO cells. The in vitro studies were conducted in presence or absence of the AT1R blocker losartan potassium (100 μM). AT1R expression in cells was confirmed by quantitative real-time reverse transcription polymerase chain reaction (RT-PCR).

[3] = cysteine challenge; type: physicochemical; conditions: 100 fold molar excess, up to 2 hours
Method: Cysteine challenge (100 fold molar excess) was also performed.

[4] = tested on: MCF-7 cells; assay: cellular uptake, internalization and membrane binding; type: cell-based
[5] = adult, 740 MBq; ref summary of products characteristics; cited from earlier work
[6] = tested on: T47D^+; assay: total cell bound tracer, T47D+; conditions: 1h incubation
Method: (§2) Total cell bound [^68Ga]1 and [^68Ga]2 over time (0-90 min) was determined according to previously published methods^1,2. FACS analysis with 3 was also performed on the following cell lines T47D^+ (PSMA^+), T47D^Mock (vector only), T47D (wild type).

[7] = tested on: PC-3^+; assay: total cell bound tracer, PC-3+; conditions: 1h incubation
Method: as §2

[8] = tested on: LNCaP; assay: total cell bound tracer, LNCaP; conditions: 1h incubation
Method: as §2

[9] = tested on: MDA-MB-231^+; assay: total cell bound tracer, MDA-MB-231+; conditions: 1h incubation
Method: as §2

[10] = logP of 68Ga-TAFC derivatives; type: physicochemical; conditions: 68Ga-labelled
Method: Stability, protein binding and logP values were determined.

[11] = human, serum
Method: Protein binding, partition coefficient and stability values of ^68Ga-pyoverdine in human serum and in the excess of competing chelator and metal were determined.

[12] = tested on: RBCs; assay: RBC radiolabelling; type: cell-based
[13] = carrageenan-induced inflammation in mice; type: in vivo; conditions: preliminary tests on mice with a carrageenan-induced inflammation
Description: Aim: Neolignan 4’-O-methylhonokiol (MH) isolated from Magnolia grandiflora is known to have several biological activities, including anti-cancer, anti-inflammatory and anti-neurodegenerative effects. […] The development of COX-2 inhibitor radiolabeled analogs is of special interest for PET visualization of inflammation and tumors. […] The present study describes the radiolabeling procedure of [^11C]MPbP.

[14] = tested on: COX-2; conditions: cited from earlier work
Description: (§1) Aim: Neolignan 4’-O-methylhonokiol (MH) isolated from Magnolia grandiflora is known to have several biological activities, including anti-cancer, anti-inflammatory and anti-neurodegenerative effects. […] The development of COX-2 inhibitor radiolabeled analogs is of special interest for PET visualization of inflammation and tumors.

[15] = tested on: COX-1; conditions: cited from earlier work
Description: as §1

[16] = biological target: T2, rhuPAR (human, UniProt Q03405 23-305); assay: ELISA; competitive bioassay: rhuPAR immobilised; ligand 0-1000 uM in the presence of 0.1 nM monoclonal mouse IgG1 antibody (clone #62022, R&D Systems) against the uPA-binding pocket of uPAR; HRP-conjugated goat anti-mouse IgG1, chromogenic substrate, read at 450 nm; assay specific IC50; conditions: both partners purified
T2 construct: Species read from the printed label 'rhuPAR' (recombinant human uPAR); also called membrane anchored receptor uPAR
T2 sequence (Q03405 23-305): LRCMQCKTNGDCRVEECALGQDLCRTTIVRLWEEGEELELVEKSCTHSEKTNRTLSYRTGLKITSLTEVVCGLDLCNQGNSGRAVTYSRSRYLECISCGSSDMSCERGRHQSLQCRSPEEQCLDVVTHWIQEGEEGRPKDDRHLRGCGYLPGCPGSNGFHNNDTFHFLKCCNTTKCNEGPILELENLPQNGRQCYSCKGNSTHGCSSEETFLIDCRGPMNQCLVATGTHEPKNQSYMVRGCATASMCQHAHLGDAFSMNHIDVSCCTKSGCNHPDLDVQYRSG

For O=C([O-])CN1CCN(CC(=O)[O-])CCN(CC(=O)[O-])CCN(CC(=O)[O-])CC1.[111In+3] [^111In-DOTA], which “binding to HCC1954 cells” value [1] is on record?
Its value is “did not bind”.

With “ammoniumethyl-trifluoroborate-losartan [^18F-AmBF3-losartan]” as the molecule, how does the “binding to AT1R-expressing cells” value [2] read?
Its value is “specific binding”.

With “MA-Cys-Tyr-Arg-Leu-Arg-BPA-Nle-Pro-Asn-Ile-OH [^99mTc labelled NPY1 short analogue, 99mTc 3+1 nitrido complex of MA-Cys-Tyr-Arg-Leu-Arg-BPA-Nle-Pro-Asn-Ile-OH]” as the molecule, how does the challenge with cysteine [3] read?
Its challenge with cysteine is “no ligand exchange”.

What about the “activity bound to the membrane” value [4] of the same molecule?
Its value is 15.2%.

What about the activity internalised [4] of the same molecule?
Its activity internalised is 84.8%.

And the cellular uptake ([4]; at 4 hours)?
Its cellular uptake is 3.1±0.2.

For “^99mTc-HYNIC-[D-Phe,Tyr-octreotide [^99mTc-Octreotide]”, which effective dose [5] is on record?
The effective dose was 3.7 mSv.

Which results are given for “H2N-(Ahx)-Lys-NH-CO-NH-Glu (PSMA-11) [[^68Ga]1]”?
cell binding, % given radioactivity [6]: ~ 2.5%; cell binding, times above control ([6]; vs Mock or blocked controls): 4 x; cell binding, % given radioactivity [7]: ~ 13%; cell binding, times above control ([7]; vs Mock or blocked controls): 10 x; cell binding, % given radioactivity [8]: ~ 66%; cell binding, % given radioactivity [9]: ~ 80%; cell binding, times above control ([9]; vs Mock or blocked controls): 100 x

With triacetylfusarinine C [[^68Ga]TAFC] as the molecule, how does the log p [10] read?
The log p was -2.1.

Which results are given for C[C@@H](O)[C@@H]1NC(=O)[C@H](CCCN(O)C=O)NC(=O)[C@@H](NC(=O)[C@H](CCCN(O)C=O)NC(=O)[C@@H](CO)NC(=O)[C@H](CCCNC(=N)N)NC(=O)[C@@H](CO)NC(=O)[C@@H]2CCN=C3C(NC(=O)CCC(=O)O)=Cc4cc(O)c(O)cc4N32)CCCCNC(=O)[C@H]([C@@H](C)O)NC1=O [^68Ga-pyoverdine, metal not drawn] (Suc-[X1][dS]R[dS][X2]K[X2]TT; lactam 6-C)?
fraction unbound [11]: > 0.97; log p: -3.07 ± 0.08

Which “labelling efficiency of RBCs” value [12] does the source give for c1cnc2c([O][89Zr]([O]c3cccc4cccnc34)([O]c3cccc4cccnc34)[O]c3cccc4cccnc34)cccc2c1 [^89Zr-oxine] here?
The value was “above 64.5%”.

With CCCc1ccc(O)c(-c2ccc(O[11CH3])cc2)c1 [MPbP, 4’-[^11C]methoxy-5-propyl-1,1’-biphenyl-2-ol] as the molecule, how does the anti-inflammatory activity [13] read?
The anti-inflammatory activity was “high anti-inflammatory activity comparable to that of specific COX-2 inhibitor celecoxib”.

Which IC50 [14] does the source give for C=CCc1ccc(O)c(-c2ccc(OC)c(CC=C)c2)c1 [MH, 4’-O-methylhonokiol] here?
Its IC50 is 62 nM.

What about the IC50 [15] of the same molecule?
Its IC50 is 2400 nM.

B1: WX-360: cyclo^21,29[D-Cys^21]-uPA_(21-30)[S21C;H29C] (peptide, UniProt P00749 41-50, looked up)
peptide: [dC]NKYFSNICW
modifications: disulfide 1-9
notes: also called the original structure; source: synthetic peptide (synthesised on solid phase)
Does B1 bind [16]?
Result: binds
